The numbers were not newly measured in patent publication US20060014839A1, “Combination of angiotensin II receptor blocker and beta-blocker for secondary prevention of myocardial infarction” (priority 2002, published 2006), which cites them from elsewhere.

This series deals with elderly patients with heart failure. The following applies: losartan versus captopril 50 mg t.i.d.

As to `CCCCc1nc(Cl)c(CO)n1Cc1ccc(-c2ccccc2-c2nn[nH]n2)cc1` [losartan], the “tolerability and increase in serum creatinine (primary objective)” value is listed as “no significant differences”. Also, the all-cause mortality result (722 patients, 49 deaths, preliminary) is “statistically significant reduction”.
